Here are results for 20 compounds from patent EP0082498A2, “Beta-lactam compounds and process for the preparation thereof” (SAGAMI CHEMICAL RESEARCH CENTER, priority 1981, dated 1983).

Structures are written as SMILES. Values after ≈ are worked out from the molar mass of the structure shown. Where two headings read alike, the source gives them in different places.

What all share (assay): Antibacterial activity, minimum inhibition concentration (MIC)
Holding throughout (type): cell-based

In experiment [1] the test system is Salmonella typhimurium IID-971. As to conditions: for MIC: Salmonella enterica, read-out: minimum inhibition concentration (MIC). On the procedure: (§1) Antibacterial activities of the compounds according to this invention, which had been prepared in the preceding Examples, were measured according to the method prescribed by The Committee of Amendment of "The method for measurement of the minimum inhibition concentration", The Chemotherapy Association, Japan (See Chemotherapy, Vol. 29, No. 1, pp. 76 ~ 79 (1981)).
(§2) The test results are shown in terms of the minimum inhibition concentration (MIC) (unit: µg/mℓ) in the following Tables 1 to 4.

The subject of experiment [2] is Staphylococcus aureus MS 353. The note with it: for MIC: Staphylococcus aureus; for minimum inhibition concentration (MIC): Table 1. On the procedure: as §1, §2
For experiment [3], the system named is Proteus morganii IFO 3848. As to conditions: for MIC: Morganella morganii; for minimum inhibition concentration (MIC): Table 1. On the procedure:
as §1, §2

Setting [4] is: Table 1, Salmonella typhimurium IID-971.
The mark [5] stands for this setting: MS353, Table 1, Staphylococcus aureus MS 353, read-out: minimum inhibition concentration (MIC).
Setting [6] is: IFO3848, Table 1, Proteus morganii IFO 3848, read-out: minimum inhibition concentration (MIC).

On to `CSC=C(C(=O)NC1C(=O)N2C(C(=O)O)=C(CSc3nnnn3C)CSC12)c1csc(N)n1` (stereo not drawn) [Example 12, 7-[2-Methylmercaptomethylene-2-(2-aminothiazol-4-yl)-acetamido]-3-(l-methyl-lH-tetrazol-5-yl)thiomethyl-3-cephem-4-carboxylic acid], for which the MIC is not above 0.006 µg/mL in experiment [1] (setting [4]), 1.56 µg/mL (≈ 2.96 µM) in experiment [2] (setting [5]) and not above 0.006 µg/mL in experiment [3] (setting [6]).

With `Cn1nnnc1SCC1=C(C(=O)O)N2C(=O)C(NC(=O)C(=CCl)c3ccccc3)C2SC1` (single isomer, unassigned) [Example 5, 7-(2-chloromethylenephenylacetamido)-3-(1-methyl-lH-tetrazol-5-yl)thiomethyl-3-cephem-4-carboxylic acid], the MIC in experiment [1] (setting [4]) is 0.78 µg/mL (≈ 1.58 µM). For the same compound, the “minimum inhibition concentration (MIC)” value in experiment [2] (Staphylococcus aureus MS 353) was 0.05 µg/mL (≈ 0.101 µM); in experiment [3] (Proteus morganii IFO 3848), 0.78 µg/mL (≈ 1.58 µM).

Take `COC(=N)C=C(C(=O)NC1C(=O)N2C(C(=O)O)=C(CSc3nnnn3C)CSC12)c1csc(N)n1` (single isomer, unassigned) [Example 17, 7-[2-(o-methylcarboxyimidoylmethylene)-2-(2-aminothiazol-4-yl)acetamido]-3-(1-methyl-1H-tetrazol-5-yl)thiomethyl-3-cephem-4-carboxylic acid]: the MIC is 0.0125 µg/mL (≈ 0.0233 µM) in experiment [1] (setting [4]), 3.12 µg/mL (≈ 5.81 µM) in experiment [2] (setting [5]) and not above 0.006 µg/mL in experiment [3] (setting [6]).

Turning to `Cn1nnnc1SCC1=C(C(=O)O)N2C(=O)C(NC(=O)C(=CBr)c3csc(N)n3)C2SC1` (stereo not drawn) [Example 21, 7-[2-Bromomethylene-2-(2-aminothiazol-4-yl)acetamido]-3-(l-methyl-lH-tetrazol-5-yl)thiomethyl-3-cephem-4-carboxylic acid], the values for the MIC in experiment [1] (setting [4]), in experiment [2] (setting [5]) and in experiment [3] (setting [6]) were not above 0.006 µg/mL, 0.2 µg/mL (≈ 0.357 µM) and 0.0125 µg/mL (≈ 0.0223 µM), respectively.

Consider `Nc1nc(C(=CCl)C(=O)NC2C(=O)N3C(C(=O)O)=C(CSc4nnnn4CC(=O)O)CS[C@H]23)cs1` (single isomer, unassigned) [Example 19, 7-[2-Chloromethylene-2-(2-aminothiazol-4-yl)acetamido]-3-(1-carboxymethyl-1H-tetrazol-5-yl)thiomethyl-3-cephem-4-carboxylic acid], for which the MIC was not above 0.006 µg/mL in experiment [1] (setting [4]), 1.56 µg/mL (≈ 2.79 µM) in experiment [2] (setting [5]) and not above 0.006 µg/mL in experiment [3] (setting [6]).

Consider `Cn1nnnc1SCC1=C(C(=O)O)N2C(=O)C(NC(=O)C(=CC#N)c3csc(NC=O)n3)[C@H]2SC1` (single isomer, unassigned) [Example 15, 7-[2-Cyanomethylene-2-(2-formylaminothiazol-4-yl)acetamido]-3-(1-methyl-1H-tetrazol-5-yl)thiomethyl-3-cephem-4-carboxylic acid], for which the “minimum inhibition concentration (MIC)” value in experiment [1] (setting [4]) is 0.05 µg/mL (≈ 0.0937 µM); in experiment [2] (Staphylococcus aureus MS 353) it was 1.56 µg/mL (≈ 2.92 µM); in experiment [3] (Proteus morganii IFO 3848) it was 0.39 µg/mL (≈ 0.731 µM).

As for `CCSC=C(C(=O)NC1C(=O)N2C(C(=O)O)=C(CSc3nnnn3C)CSC12)c1csc(N)n1` (stereo not drawn) [Example 11, 7-[2-ethylmercaptomethylene-2-(2-aminothiazol-4-yl)-acetamido]-3-(l-methyl-lH-tetrazol-5-yl)thiomethyl-3-cephem-4-carboxylic acid], the “minimum inhibition concentration (MIC)” value was not above 0.006 µg/mL in experiment [1] (setting [4]), 0.78 µg/mL (≈ 1.44 µM) in experiment [2] (Staphylococcus aureus MS 353) and not above 0.006 µg/mL in experiment [3] (Proteus morganii IFO 3848).

As for `CC(=O)OCC1=C(C(=O)O)N2C(=O)C(NC(=O)C(=CCl)c3cnc(N)s3)C2SC1` (stereo not shown) [Example 8, sodium 7-[2-chloromethylene-2-(2-aminothiazol-5-yl)acetamido]-cephalosporanate], the values for the MIC in experiment [1] (setting [4]) and in experiment [2] (setting [5]) were 25 µg/mL and 0.78 µg/mL, respectively.

In the case of `Nc1nc(C(=CCl)C(=O)NC2C(=O)N3C(C(=O)[O-])=C(CSc4nncs4)CS[C@H]23)cs1.[Na+]` (single isomer, unassigned) [Example 3, sodium 7-[2-chloromethylene-2-(2-aminothiazol-4-yl)acetamido]-3-(1,3,4-thiadiazol-5-yl)thiomethyl-3-cephem-4-carboxylate], the MIC in experiment [1] was not above 0.006 µg/mL; in experiment [2] (MS353, read-out: minimum inhibition concentration (MIC)), 0.1 µg/mL; in experiment [3] (IFO3848, read-out: minimum inhibition concentration (MIC)) it was not above 0.006 µg/mL.

In the case of `CCSC=C(C(=O)NC1C(=O)N2C(C(=O)O)=C(CSc3nnnn3C)CSC12)c1csc(N)n1` (stereo not drawn) [Example 10, sodium 7-[2-ethylmercaptomethylene-2-(2-aminothiazol-4-yl)acetamido]-3-(l-methyl-lH-tetrazol-5-yl)thiomethyl-3-cephem-4-carboxylate], the MIC is not above 0.006 µg/mL in experiment [1] (setting [4]), 1.56 µg/mL in experiment [2] (setting [5]) and not above 0.006 µg/mL in experiment [3] (setting [6]).

Take `Cn1nnnc1SCC1=C(C(=O)O)N2C(=O)C(NC(=O)C(=CCl)Sc3cnc(N)s3)C2SC1` (stereo not shown) [Example 9, sodium 7-[2-chloromethylene-3-(2-aminothiazol-5-yl)mercaptoacetamido]-3-(1-methyl-1H-tetrazol-5-yl)thiomethyl-3-cephem-4-carboxylate]: the MIC was found to be 25 µg/mL in experiment [1] (setting [4]) and 3.12 µg/mL in experiment [2] (setting [5]).

Consider `Cn1nnnc1SCC1=C(C(=O)O)N2C(=O)C(NC(=O)C(=CCl)c3cnc(N)s3)C2SC1` (stereo not drawn) [Example 7, sodium 7-[2-chloromethylene-2-(2-aminothiazol-5-yl)acetamido]-3-(l-methyl-lH-tetrazol-5-yl)thiomethyl-3-cephem-4-carboxylate], for which the MIC in experiment [1] (setting [4]) was 1.56 µg/mL; in experiment [2] (setting [5]), 0.39 µg/mL; in experiment [3] (setting [6]) it was 1.56 µg/mL.

As to `CC1=C(C(=O)O)N2C(=O)C(NC(=O)C(=CCl)c3csc(N)n3)C2SC1` (single isomer, unassigned) [Example 2, sodium 7-[2-chloromethylene-2-(2-aminothiazol-4-yl)acetamido]desacetoxy-cephalosporanate], the MIC in experiment [1] (setting [4]) worked out at 0.0125 µg/mL; in experiment [2] (setting [5]) it was 6.25 µg/mL; in experiment [3] (setting [6]), 0.0125 µg/mL.

In the case of `Cc1nnc(SCC2=C(C(=O)O)N3C(=O)C(NC(=O)C(=CCl)c4csc(N)n4)C3SC2)s1` (single isomer, unassigned) [Example 1, sodium 7-[2-chloromethylene-2-(2-aminothiazol-4-yl)acetamido]-3-(2-methyl-l,3,4-thiadiazol-5-yl)thiomethyl-3-cephem-4-carboxylate], the MIC in experiment [1] (setting [4]) is not above 0.006 µg/mL; in experiment [2] (setting [5]) it was 0.1 µg/mL; in experiment [3] (setting [6]), not above 0.006 µg/mL.

With `Cn1nnnc1SCC1=C(C(=O)O)N2C(=O)C(NC(=O)C(=CCl)c3ccccc3)C2SC1` (single isomer, unassigned) [Example 6, 7-(2-chloromethylenephenylacetamido)-3-(l-methyl-lH-tetrazol-5-yl)thiomethyl-3-cephem-4-carboxylic acid], the “minimum inhibition concentration (MIC)” value amounted to 1.56 µg/mL (≈ 3.16 µM) in experiment [1] (setting [4]), 0.78 µg/mL (≈ 1.58 µM) in experiment [2] (Staphylococcus aureus MS 353) and 6.25 µg/mL (≈ 12.7 µM) in experiment [3] (Proteus morganii IFO 3848).

As to `CSc1nnc(SCC2=C(C(=O)O)N3C(=O)C(NC(=O)C(=CCl)c4csc(N)n4)C3SC2)s1` (single isomer, unassigned) [Example 20, 7-[2-chloromethylene-2-(2-aminothiazol-4-yl)acetamido]-3-(2-methylthio-l,3,4-thiadiazol-5-yl)thiomethyl-3-cephem-4-carboxylic acid], the MIC is not above 0.006 µg/mL in experiment [1] (setting [4]), 0.1 µg/mL (≈ 0.178 µM) in experiment [2] (setting [5]) and not above 0.006 µg/mL in experiment [3] (setting [6]).

On to `Cn1nnnc1SCC1=C(C(=O)O)N2C(=O)C(NC(=O)C(=CC#N)c3csc(NC=O)n3)[C@H]2SC1` (single isomer, unassigned) [Example 13, 7-[2-Cyanomethylene-2-(2-formylaminothiazol-4-yl)acetamido]-3-(1-methyl-1H-tetrazol-5-yl)thiomethyl-3-cephem-4-carboxylic acid], for which the “minimum inhibition concentration (MIC)” value in experiment [1] (setting [4]) was 25 µg/mL (≈ 46.9 µM); in experiment [2] (Staphylococcus aureus MS 353), 50 µg/mL (≈ 93.7 µM); in experiment [3] (Proteus morganii IFO 3848), 50 µg/mL (≈ 93.7 µM).

For the compound `Cn1nnnc1SCC1=C(C(=O)O)N2C(=O)C(NC(=O)C(=CC(N)=O)c3csc(N)n3)C2SC1` (single isomer, unassigned) [Example 18, 7-[2-Carbamoylmethylene-2-(2-aminothiazol-4-yl)acetamido]-3-(1-methyl-lH-tetrazol-5-yl)thiomethyl-3-cephem-4-carboxylic acid], the MIC is 0.1 µg/mL (≈ 0.191 µM) in experiment [1] (setting [4]), 12.5 µg/mL (≈ 23.9 µM) in experiment [2] (setting [5]) and not above 0.006 µg/mL in experiment [3] (setting [6]).

Consider `Cn1nnnc1SCC1=C(C(=O)O)N2C(=O)C(NC(=O)C(=CC#N)c3csc(N)n3)C2SC1` (single isomer, unassigned) [Example 16, 7-[2-Cyanomethylene-2-(2-aminothiazol-4-yl)acetamido]-3-(l-methyl-lH-tetrazol-5-yl)thiomethyl-3-cephem-4-carboxylic acid], for which the MIC in experiment [1] (setting [4]) is not above 0.006 µg/mL; in experiment [2] (setting [5]), 0.78 µg/mL (≈ 1.54 µM); in experiment [3] (setting [6]), not above 0.006 µg/mL.

As for `Cl.Cn1nnnc1SCC1=C(C(=O)O)N2C(=O)C(NC(=O)C(=CC#N)c3csc(N)n3)[C@H]2SC1` (single isomer, unassigned) [Example 14, 7-[2-Cyanomethylene-2-(2-aminothiazol-4-yl)acetamido]-3-(1-methyl-1H-tetrazol-5-yl)thiomethyl-3-cephem-4-carboxylic acid hydrochloride salt], the MIC in experiment [1] (setting [4]) stood at 0.39 µg/mL; in experiment [2] (setting [5]), 100 µg/mL; in experiment [3] (setting [6]), 0.39 µg/mL.
